Earlier results on one compound are cited in patent US11149018B2, “Substituted N-arylethyl-2-aminoquinoline-4-carboxamides and use thereof” (Bayer Aktiengesellschaft, priority 2017, dated 2021).

Molecules are shown by their SMILES.

The subject of the data set is occlusion of the cerebral artery. The note with it: treatment with the FP antagonist after occlusion of the cerebral artery; cited from earlier work.

Turning to `O=C(O)CCC/C=C\C[C@@H]1[C@@H](/C=C/[C@H](O)C2Cc3ccccc3C2)[C@@H](F)C[C@@H]1O` [AL-8810], the neuroprotective effect result is on record as “significant neuroprotective effects”.
